In patent US10556865B2, “Synergistic herbicidal composition containing certain pyridine or pyrimidine carboxylic acids and certain cereal and rice herbicides” (Dow AgroSciences, LLC, priority 2007, dated 2020):
Several values for one entry are separate records, joined by “and”; a condition that tells them apart may be missing. Identical values can stand only once.

Tests used:
Format in all cases: in vivo
[1] = tested on: Polygonum pensylvanicum L. (POLPY); assay: Postemergence herbicidal mixtures for weed control in direct seeded rice (greenhouse, visual % injury); conditions: for % Injury Ob: POLPY
[2] = tested on: Fimbristylis miliacea (L.) VAHL (FIMMI); assay: as above; conditions: for % Injury Ob: FIMMI
[3] = tested on: Brachiaria platyphylla (BRISEB.) NASH (BRAPP); assay: as above
[4] = tested on: Scirpus maritimus L. (SCPMA); assay: as above; conditions: for % Injury Ob: SCPMA
[5] = tested on: Cyperus iria L. (CYPIR); assay: as above; conditions: CYPIR
[6] = tested on: Cyperus esculentus L. (CYPES); assay: as above; conditions: CYPES
[7] = tested on: Ischaemum rugosum SALISB. (ISCRU); assay: as above; conditions: ISCRU
[8] = tested on: wild pansy (Viola tricolor L; VIOTR); assay: Postemergence herbicidal activity of mixtures in cereal crops (greenhouse, visual injury); conditions: 70 g/ha alone
In short: (§1)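 Weeds grown in greenhouse (~14 h photoperiod, ~18/17 °C day/night) to second–third true leaf stage, sprayed postemergence with compound and second cereal herbicide alone or combined; solvent-blank controls. Injury scored visually after 20-22 days, 0–100% (complete kill); expected mixture activity = A+B−(A×B/100).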

[9] = tested on: bird's-eye speedwell (Veronica persica L; VERPE); assay: as above; conditions: 70 g/ha alone
In short: as §1

[10] = tested on: lady's-thumb (Polygonum persicaria L; POLPE); assay: as above; conditions: 70 g/ha alone
In short: (§2)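 Injury rated visually on a 0–100% scale 20–22 days after treatment, against controls sprayed with solvent blank. Treatments were applied by track sprayer at 187 L/ha to 2nd–3rd leaf plants; compound A or B salts/esters were tested alone or mixed with another cereal herbicide. Colby's equation gave expected mixture responses.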

[11] = tested on: wild buckwheat (Polygonum convolvulus L; POLCO); assay: as above; conditions: 70 g/ha alone
In short: as §2

[12] = tested on: chickweed (Stellaria media L; STEME); assay: as above; conditions: 70 g/ha alone
In short: as §2

[13] = tested on: Cyperus species (CYPSS); assay: Herbicidal mixtures for weed control in transplanted paddy rice (in-water application, visual % injury); conditions: CYPES = Cyperus esculentus
Experimental: Weed seeds or nutlets of the desired test plant species were planted in puddled soil (mud) prepared by mixing a non-sterilized mineral soil (28 percent silt, 18 percent clay, and 54 percent sand, with a pH of about 7.3 to 7.8 and an organic matter content of about 1.0 percent) and water at a ratio of 100 kilograms (kg) of soil to 19 L of water. The prepared mud was dispensed in 250 mL aliquots into 480 mL non-perforated plastic pots with a surface area of 91.6 square centimeters leaving a headspace of 3 centimeters in each pot. Rice seeds were planted in Sun Gro MetroMix® 306 planting mixture, which typically has a pH of 6.0 to 6.8 and an organic matter content of about 30 percent, in plastic plug trays. Seedlings at the second or third leaf stage of growth were transplanted into 650 mL of mud contained in 960 mL non-perforated plastic pots with a surface area of 91.6 cm^2 4 days prior to herbicide application. The paddy was created by filling the 3 centimeter headspace of the pots with water. When required to ensure good germination and healthy plants, a fungicide treatment and/or other chemical or physical treatment was applied. The plants were grown for 4-14 days in a greenhouse with an approximate 14 hr photoperiod which was maintained at about 29° C. during the day and 26° C. during the night. Nutrients were added as Osmocote (17:6:10, N:P:K+minor nutrients) at 2 g per cup. Water was added on a regular basis to maintain the paddy flood, and supplemental lighting was provided with overhead metal halide 1000-Watt lamps as necessary. The plants were employed for testing when they reached the second or third true leaf stage.
Treatments consisted of esters or salts of compound A, compound C, or compound D and various herbicidal components alone and in combination. For technical grade compounds, a weighed amount, determined by the highest rate to be tested, was placed in an individual 120 mL glass vial and was dissolved in 20 mL of acetone to obtain concentrated stock solutions. […] The concentrated stock solutions obtained were diluted with 20 mL of an aqueous mixture containing 2.5% Agri-dex crop oil concentrate (v/v). For formulated compounds, a measured amount, determined by the highest rate to be tested, was placed in an individual 120 mL glass vial and was dissolved in 20 mL of 2.5% (v/v) Agri-dex crop oil concentrate to obtain concentrated stock solutions. The concentrated stock solutions obtained were diluted with 20 mL of acetone. Applications were made by injecting an appropriate amount of the stock solution into the aqueous layer of the paddy. Control plants were treated in the same manner with the solvent blank. All treated plant material received the same concentration of acetone and crop oil concentrate.
Forms of compounds A, C, and D were applied on an acid equivalent basis. Other herbicidal components were applied on an active ingredient basis and included acetolactate synthase (ALS)-inhibiting herbicides penoxsulam (triazolopyrimidine chemical class) applied as Grasp SC, […] (sulfonylurea chemical class) applied as Sirius G, and bensulfuron-methyl (sulfonylurea chemical class) applied as Londax; acetyl CoA carboxylase (ACCase) inhibiting herbicides cyhalofop-butyl applied as Clincher G and fenoxaprop-p-ethyl applied as Ricestar HT; auxinic herbicide quinclorac applied as Facet 75 DF; phytoene desaturase inhibiting herbicide norflurazon; and p-hydroxyphenylpyruvate dioxygenase (HPPD) inhibiting herbicide sulcotrione applied as Mikado.
The treated plants and control plants were placed in a greenhouse as described above and water was added as needed to maintain a paddy flood. After 3 weeks the condition of the test plants as compared with that of the untreated plants was determined visually and scored on a scale of 0 to 100 percent where 0 corresponds to no injury and 100 corresponds to complete kill.

[14] = tested on: windgrass (Apera spica-venti L; APESV); assay: Postemergence herbicidal activity of mixtures in cereal crops (greenhouse, visual injury); conditions: Apera spica-venti, post-emergence, 2.5 g/ha, Table 14; read-out: APESV Ob
In short: (§3)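 Plants at second-third true leaf stage sprayed postemergence at 187 L/ha with compound and second cereal herbicide alone and combined; solvent blank controls. Visual injury scored 0-100% versus controls after 20-22 days; expected mixture effects by Colby's equation.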

[15] = tested on: wild oats (Avena fatua L; AVEFA); assay: as above; conditions: 2.5 g/ha, Table 14
In short: as §3

[16] = tested on: Canada thistle (Cirsium arvense L; CIRAR); assay: as above; conditions: 3.75 g/ha
In short: as §1

[17] = tested on: green foxtail (Setaria viridis L; SETVI); assay: as above; conditions: 2.5 g/ha, Table 7
In short: as §2

[18] = tested on: Italian ryegrass (Lolium multiflorum L; LOLMU); assay: as above; conditions: 2.5 g/ha, Table 14
In short: as §2

[19] = tested on: blackgrass (Alopecurus myosuroides L; ALOMY); assay: Postemergence herbicidal activity of mixtures in cereal crops (greenhouse, visual injury 0-100 percent after 20-22 days); conditions: 2.5 g/ha
Experimental: Seeds of the desired test plant species were planted in Sun Gro MetroMix® 306 planting mixture, which typically has a pH of 6.0 to 6.8 and an organic matter content of about 30 percent, in plastic pots with a surface area of 103.2 square centimeters (cm^2). […] The plants were grown for 7-36 days in a greenhouse with an approximate 14 hour photoperiod which was maintained at about 18° C. during the day and 17° C. during the night. Nutrients and water were added on a regular basis and supplemental lighting was provided with overhead metal halide 1000-Watt lamps as necessary. The plants were employed for testing when they reached the second or third true leaf stage.
Treatments consisted of compound (as listed in Tables 1 through 64) and a second cereal herbicide alone and in combination. […] The concentrated stock solutions were diluted to 1.5 mg ai/mL with the addition of 2 volumes of an aqueous mixture containing acetone, water, isopropyl alcohol, DMSO, Agri-dex crop oil concentrate, and Triton® X-77 surfactant in a 64.7:26.0:6.7:2.0:0.7:0.01 v/v ratio. A dilution solution was prepared by mixing 1 volume of 97:3 v/v acetone/DMSO and 2 volumes of an aqueous mixture containing acetone, water, isopropyl alcohol, DMSO, Agri-dex crop oil concentrate, and Triton® X-77 surfactant in a 64.7:26.0:6.7:2.0:0.7:0.01 v/v ratio. Compound requirements are based upon a 12 mL application volume at a rate of 187 liters per hectare (L/ha). […] Formulated compounds were applied to the plant material with an overhead Mandel track sprayer equipped with 8002E nozzles calibrated to deliver 187 L/ha over an application area of 0.503 square meters (m^2) at a spray height of 18 inches […] above average plant canopy. Control plants were sprayed in the same manner with the solvent blank.
The treated plants and control plants were placed in a greenhouse as described above and watered by sub-irrigation to prevent wash-off of the test compounds. After 20-22 days, the condition of the test plants as compared with that of the control plants was determined visually and scored on a scale of 0 to 100 percent where 0 corresponds to no injury and 100 corresponds to complete kill.
Colby's equation was used to determine the herbicidal effects expected from the mixtures (Colby, S. R. 1967. Calculation of the synergistic and antagonistic response of herbicide combinations. Weeds 15:20-22.).
The following equation was used to calculate the expected activity of mixtures containing two active ingredients, A and B: Expected=A+B−(A×B/100)

C=CCOC(=O)c1nc(-c2ccc(Cl)c(OC)c2F)cc(N)c1Cl [Compound A Allyl]
% Injury Ob ([1]; 17.5 g/ha alone): 90% | % Injury Ob ([1]; 35 g/ha alone): 70% | % Injury POLPY Ob ([1]; alone 17.5 g/ha): 70% | % Injury Ob ([2]; 8.75 g/ha alone): 0% | % Injury Ob ([2]; 35 g/ha alone): 60% | % Injury FIMMI Ob ([2]; alone 17.5 g/ha): 40% | % Injury Ob ([3]; 4.38 g/ha alone): 80% | % Injury Ob ([3]; 8.75 g/ha alone): 60% and 80% and 100% | % Injury Ob ([3]; 17.5 g/ha alone): 99% | % Injury Ob ([4]; 17.5 g/ha alone): 10% | % Injury Ob ([4]; 35 g/ha alone): 20% | % Injury SCPMA Ob ([4]; alone 17.5 g/ha): 0% | % Injury Ob ([5]; 17.5 g/ha alone): 35% | % Injury Ob ([5]; 35 g/ha alone): 85% | % Injury Ob ([6]; 17.5 g/ha alone): 50% | % Injury Ob ([6]; 35 g/ha alone): 95% | % Injury Ob ([7]; 8.75 g/ha alone): 10% | % Injury Ob ([7]; 17.5 g/ha alone): 40%

Cc1cc(Cl)ccc1OCC(=O)O [MCPA]
VIOTR Ob [8]: 17% | VERPE Ob [9]: 10% | POLPE Ob [10]: 23% | POLCO Ob [11]: 7% | STEME Ob [12]: 7%

CNc1cnn(-c2cccc(C(F)(F)F)c2)c(=O)c1Cl [Norflurazon]
% Injury Ob ([2]; 560 g/ha alone): 0% | % Injury Ob ([3]; 70 g/ha alone): 0% | % Injury CYPES Ob ([13]; Norflurazon 70 g/ha alone (Compound A Methyl half)): 0% | % Injury CYPES Ob ([13]; Norflurazon 70 g/ha alone (Compound A TEA half)): 0% | % Injury Ob ([4]; 560 g/ha alone): 60% | % Injury Ob ([5]; 560 g/ha alone): 0% | % Injury Ob ([6]; 560 g/ha alone): 0%

COc1nc(C)nc(NC(=O)NS(=O)(=O)c2cc(I)ccc2C(=O)O)n1 [Iodosulfuron, 4-iodo-2-[[[[(4-methoxy-6-methyl-1,3,5-triazin-2-yl)amino]carbonyl]amino]sulfonyl]benzoic acid, reference compound]
pest or weed control at 2.5 g/ha [14]: 68% | AVEFA Ob [15]: 35% | CIRAR Ob [16]: 50% | SETVI Ob [17]: 0% | LOLMU Ob [18]: 53% | ALOMY Ob ([19]; Table 7): 50% | ALOMY Ob ([19]; Table 14): 50%

CCCCC(CC)COC(=O)COc1ccc(Cl)cc1C (stereo not shown) [MCPA EHE]
% Injury Ob ([2]; 70 g/ha alone): 0% | % Injury Ob ([2]; 140 g/ha alone): 0% | % Injury Ob ([3]; 70 g/ha alone): 0% | % Injury Ob ([3]; 140 g/ha alone): 0% | % Injury Ob ([7]; 70 g/ha alone): 0% | % Injury Ob ([7]; 140 g/ha alone): 0%
